One data set has as its system MSSA. The data set can be described thus: Test A antibacterial assay, broth microdilution MIC. The following applies: Staphylococcus aureus, growth read after 24 to 48 hours at OD 600 nm. The class given is cell-based. On the procedure:
Test A. Antibacterial Assay. Antibacterial activity can be determined as per Clinical and Laboratory Standards Institute (CLSI) guidelines using a broth microdilution assay in which log-phase bacteria are grown at 37° C. in appropriate medium containing two-fold serial dilutions of a compound to yield final concentrations ranging from 256 to 0.06 μg/mL. For determination of minimal inhibitory concentration (MIC) values, bacterial growth is monitored after 24 to 48 hours by measuring optical density at 600 nm.
On the technique in general: In broth dilution the organism is exposed to a series of concentrations in liquid medium.

Data set [1] in a line: Test D formulation of test compounds (solubility in vehicles). It is filed as physicochemical. The conditions noted are these: for concentration readily formulated: 10 mM solutions of citrate, methane sulfonate, p-toluene sulphonate, phosphoric acid, and tartaric acid. As for the experimental part: Test D. Formulation of Test Compounds.
The literature vehicle reported for formulation of 5-chloro-2-(2,4-difluoro-3-aminocarbonylphenoxy)methylpyridylthiazole for i.v. administration consists of 20% DMA, 40% polyethylene glycol and 40% saline. […] Mice that were treated 15 minutes later with a second injection consisting of 150 μl of this vehicle died. In addition, concentrations of 5-chloro-2-(2,4-difluoro-3-aminocarbonylphenoxy)methylpyridylthiazole at or above 2.2 mg/ml in this vehicle were not completely dissolved and existed as a suspension (in a 28 g mouse this would be 15.7 mg/kg). A number of other formulations with 5-chloro-2-(2,4-difluoro-3-aminocarbonylphenoxy)methyl […] were tried, such as 20% DMA, 40% proplyeneglycol in 8% Cremophor-EL. […] Because of the limited solubility and the absence of a suitable vehicle, the literature study where it was reported that a 30 mg/kg dose of 5-chloro-2-(2,4-difluoro-3-aminocarbonylphenoxy)methylpyridylthiazole was delivered to mice in a single injection could not be repeated. […] In some instances the addition of 10-30% propylene glycocol did allow for greater retention of solubility of the test compounds. Example 4 was also found to formulate well at a 2.0 mg/ml concentration in 10 mM malic acid with 20% propylene glycol and with 10 mM p-toluenesulphonate alone. Example 6 did formulate well in 10 mM citrate alone at a concentration of 2.0 mg/ml. […] The ability of mice to tolerate this vehicle did allow for multiple dosing in the assessment of Example 6 in vivo and to actually deliver higher doses of the Example 6 because of the compatibility of a predominately aqueous vehicle.

A further data set relates to MSSA (S. aureus). The data set can be described thus: Test E in vivo efficacy, murine septicemia model of staphylococcal infection. The following applies: for mice surviving the infection / mice: i.v. treatment. As for the experimental part: Test E. In Vivo Efficacy in the Mouse Peritonitis or Mouse Septicemia Model.
Assessment of in vivo efficacy was performed using femal Swiss Webster mice (obtained from Taconic Farms, Germantown, Pa.) employing a murine septicemia model of staphylococcal infection. For bioassays examining efficacy against MSSA, each mouse was inoculated intraperitoneally with 500 μl of an inoculum containing 1.0×10^8 CFU per ml of S. aureus. All of the in vivo efficacy studies include a negative control group of infected mice treated intravenously either with vehicle alone (6 mice) or untreated (6 mice), as well as a positive control groups of infected mice treated with 200 ul of […] of vancomycin administered intravenously (4 mice) and a second control group using 2.0 mg/ml of oxacillin (4 mice). After the mice were infected, groups of six mice are treated by tail vein injection with 300 ul of a solution containing 2.0 mg of Example 6 in 10 mM citrate. Mice received four doses Example 6 administered with a 15 minute interval. Control mice are treated with vancomycin qd, oxacillin b.i.d, or vehicle alone. […] Animals are given food and water ad libitum. Survival within each experimental group is monitored over a 24 hout time period. Monitoring of the mice began 4 hours after the start of experiment. All of the effective mice treated with Example 6 survived the infection (5/5, 100% survival). All of the oxacillin-treated (4/4) and vancomycin-treated mice (4/4) survived the infection. All of the vehicle controls died within 12 hours, with 0/6 or 0% survival. Among the infected mice that receive no treatment, only 1/6 survived (16.7% survival).

Data set [2] concerns Bacillus subtilis FG347 bacteria. The data set can be described thus: Test C FtsZ Z-ring assay (GFP-ZapA fluorescence microscopy). The following applies: compound at 3 μg/mL. It is filed as cell-based. As for the experimental part:
Test C. FtsZ Z-Ring Assay.
The impact of a compound on FtsZ Z-ring formation can be determined using a strain of Bacillus subtilis (FG347) that expresses a green fluorescent protein (GFP)-ZapA fusion protein upon induction with xylose. ZapA is known to associate with FtsZ Z-rings in B. subtilis and, thus, serves as a marker for Z-ring formation. In this assay, log-phase FG347 bacteria are treated with differing concentrations of compound for time periods ranging from 1 to 6 hours. At each time point, aliquots are taken from each culture and then viewed with a fluorescence microscope.
Examples 4 and 6-8 were evaluated for their impact on the polymerization of Staphylococcus aureus FtsZ. […] In addition, Example 5 and 7 were also examined for their impact on FtsZ Z-ring formation in Bacillus subtilis FG347 bacteria. […] These collective results highlight the compounds of the invention as FtsZ-targeting antibacterial agents.

The format of data set [3] is in vivo. The conditions noted are these: formulated in 20% DMA, 40% proplyeneglycol in 8% Cremophor-EL; apparent embolitic effect from drug precipitation. On the procedure:
The literature vehicle reported for formulation of 5-chloro-2-(2,4-difluoro-3-aminocarbonylphenoxy)methylpyridylthiazole for i.v. administration consists of 20% DMA, 40% polyethylene glycol and 40% saline. […] Mice that were treated 15 minutes later with a second injection consisting of 150 μl of this vehicle died. In addition, concentrations of 5-chloro-2-(2,4-difluoro-3-aminocarbonylphenoxy)methylpyridylthiazole at or above 2.2 mg/ml in this vehicle were not completely dissolved and existed as a suspension (in a 28 g mouse this would be 15.7 mg/kg). A number of other formulations with 5-chloro-2-(2,4-difluoro-3-aminocarbonylphenoxy)methyl benzothiazole were tried, such as 20% DMA, 40% proplyeneglycol in 8% Cremophor-EL. […] Because of the limited solubility and the absence of a suitable vehicle, the literature study where it was reported that a 30 mg/kg dose of 5-chloro-2-(2,4-difluoro-3-aminocarbonylphenoxy)methylpyridylthiazole was delivered to mice in a single injection could not be repeated. […] In some instances the addition of 10-30% propylene glycocol did allow for greater retention of solubility of the test compounds. Example 4 was also found to formulate well at a 2.0 mg/ml concentration in 10 mM malic acid with 20% propylene glycol and with 10 mM p-toluenesulphonate alone. Example 6 did formulate well in 10 mM citrate alone at a concentration of 2.0 mg/ml. […]

The mark [4] stands for this setting: MSSA-infected mice, 24 h monitoring.

One may read the MIC as the lowest concentration that inhibits growth of the organism. A high value points to a need for much substance.

The structures appear in SMILES notation. Converted amounts (≈) assume the structure as drawn.

In the data set on MSSA, `CN(C)CNC(=O)c1c(F)ccc(OCc2nc3cc(Cl)ccc3s2)c1F` [Example 4] had an MIC of 0.125 µg/mL (≈ 0.304 µM). Moreover, the concentration formulated well in data set [1] (10 mM malic acid with 20% propylene glycol) and in data set [1] (10 mM p-toluenesulphonate alone) was 2.0 mg/mL each time. Besides, the concentration readily formulated in data set [1] worked out at 2.0 mg/mL.

Regarding `CN[C@H](CC(C)C)C(=O)N[C@H]1C(=O)N[C@@H](CC(N)=O)C(=O)N[C@H]2C(=O)N[C@H]3C(=O)N[C@H](C(=O)N[C@H](C(=O)O)c4cc(O)cc(O)c4-c4cc3ccc4O)[C@H](O)c3ccc(c(Cl)c3)Oc3cc2cc(c3O[C@@H]2O[C@H](CO)[C@@H](O)[C@H](O)[C@H]2O[C@H]2C[C@](C)(N)[C@H](O)[C@H](C)O2)Oc2ccc(cc2Cl)[C@H]1O` [vancomycin, reference compound], in the data set on MSSA (S. aureus) (setting [4]), the “mice surviving the infection / mice” value was 4/4.

As for `O=C(NCN1CCOCC1)c1c(F)ccc(OCc2nc3cc(Cl)cnc3s2)c1F` [Example 7], the lowest concentration to inhibit growth in the data set on MSSA (MIC) was 0.5 µg/mL (≈ 1.1 µM). Moreover, in data set [2], the bacterial morphology induced result is listed as “elongated, filamentous morphology” and the “impact on FtsZ Z-ring formation” value was “inhibit FtsZ Z-ring formation”.

Turning to `Cc1onc(-c2ccccc2)c1C(=O)N[C@@H]1C(=O)N2[C@@H]1SC(C)(C)[C@@H]2C(=O)O` [oxacillin, reference compound], in the data set with MSSA (S. aureus) (setting [4]), the “mice surviving the infection / mice” value is on record as 4/4.

As for `CN(C)CNC(=O)c1c(F)ccc(OCc2nc3cc(Cl)cnc3s2)c1F` [Example 6], the lowest concentration to inhibit growth against MSSA (MIC) was 0.25 µg/mL (≈ 0.606 µM). The molecule further came in with a concentration formulated well in data set [1] (10 mM citrate alone) of 2.0 mg/mL. In data set [1], the concentration readily formulated is 2.0 mg/mL. Also, the survival with MSSA (S. aureus) (MSSA-infected mice, i.v. tail vein, four doses at 15 minute interval in 10 mM citrate, 24 h monitoring) was 100%. Moreover, the “mice surviving the infection / mice” value with MSSA (S. aureus) (setting [4]) is listed as 5/5. Moreover, the “death during the course of treatment” value with MSSA (S. aureus) (group of six mice, 300 ul i.v. of 2.0 mg solution in 10 mM citrate, four doses) was “One of the mice treated with Example 6 died during the course of treatment”.

The molecule `CCN(CC)CNC(=O)c1c(Cl)ccc(OCc2nc3cc(Cl)ccc3s2)c1F` [Example 42] displayed a minimal inhibitory concentration (MIC) with MSSA of 2 µg/mL (≈ 4.38 µM).

Take `CN1CCN(C(NC(=O)c2c(F)ccc(OCc3nc4cc(Cl)ccc4s3)c2F)c2ccncc2)CC1` (stereo not shown) [Example 37]: in the data set on MSSA, the minimal inhibitory concentration (MIC) is 0.5 µg/mL (≈ 0.919 µM).

On to `Cc1nc(COc2ccc(F)c(C(=O)NCN3CCC(C)CC3)c2F)sc1-c1ccc(C(F)(F)F)cc1` [Example 43], for which, in the data set on MSSA, the minimum inhibitory concentration (MIC) stood at 2 µg/mL (≈ 3.71 µM). Against the preceding molecule, the MIC is about 4-fold higher.

For the molecule `CN(C)/C=N/C(=O)c1c(F)ccc(OCc2nc3cc(Cl)cnc3s2)c1F` [Example 5], the MIC in the data set with MSSA was 0.25 µg/mL (≈ 0.609 µM). Also, in data set [2], the bacterial morphology induced entry is recorded as “elongated, filamentous morphology” and the “impact on FtsZ Z-ring formation” value is listed as “inhibit FtsZ Z-ring formation”.

In the data set on MSSA, `Cc1nc(COc2ccc(F)c(C(=O)NCN(C)C)c2F)sc1-c1ccncc1` [Example 1] had an MIC of over 64 µg/mL.

Take `CN(CNC(=O)c1c(F)ccc(OCc2nc3cc(Cl)cnc3s2)c1F)Cc1ccc(C(F)(F)F)cc1` [Example 13]: the MIC in the data set with MSSA worked out at 1 µg/mL (≈ 1.8 µM).

The molecule `CCN(CC)CNC(=O)c1c(F)ccc(OCc2nc(-c3ccc(C(F)(F)F)cc3)c(Br)o2)c1F` [Example 22] yielded a minimum inhibitory concentration (MIC) in the data set on MSSA of 0.125 µg/mL (≈ 0.222 µM). Compared with the last molecule, the MIC is about 8-fold lower.

The molecule `CCN(CC)CNC(=O)c1c(F)ccc(OCc2nc3cc(Cl)ccc3o2)c1F` [Example 24] displayed an MIC with MSSA of 8 µg/mL (≈ 18.9 µM).

In the case of `C/C(=N\C(=O)c1c(F)ccc(OCc2nc3cc(Cl)ccc3s2)c1F)N(C)C` [Example 44], the minimal inhibitory concentration (MIC) against MSSA came to 2 µg/mL (≈ 4.72 µM).

`Cc1ccc(CN(C)CNC(=O)c2c(F)ccc(OCc3nc4cc(Cl)ccc4o3)c2F)cc1` [Example 25] showed an MIC against MSSA of 16 µg/mL (≈ 32.9 µM).

Consider `NC(=O)c1c(F)ccc(OCc2nc3cc(Cl)ccc3s2)c1F` [5-chloro-2-(2,4-difluoro-3-aminocarbonylphenoxy)methyl benzothiazole], for which the “outcome of mice treated with the formulation” value in data set [3] is reported as “died within a few minutes”.

`COc1ccc(CN(C)CNC(=O)c2c(F)ccc(OCc3nc4cc(Cl)ccc4o3)c2F)cc1` [Example 26] registered an MIC in the data set on MSSA of 16 µg/mL (≈ 31.9 µM).

For the molecule `Cc1csc(COc2ccc(F)c(C(=O)NCN(C)C)c2F)n1` [Example 46], in the data set on MSSA, the minimum inhibitory concentration (MIC) is 8 µg/mL (≈ 23.4 µM).

Consider `CNCNC(=O)c1c(F)ccc(OCc2nc3cc(Cl)ccc3s2)c1F` [Example 27], for which the lowest concentration to inhibit growth in the data set on MSSA (MIC) was 0.125 µg/mL (≈ 0.314 µM).
